The values that follow come from patent US10336732B2, “1-heterocyclyl isochromanyl compounds and analogs for treating CNS disorders” (Sunovion Pharmaceuticals Inc., priority 2015, dated 2019).

This experiment deals with mice. As to the kind of experiment: Neuropharmacological assay (SmartCube), behavioral signature of compound-treated mice. In kind it is in vivo. As to conditions: i.p. 15 min before behavioral test, most efficacious dose(s) of 3 doses. In short, it runs like this:
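Mice received compound i.p. in NMP/PEG/propylene glycol vehicle at 3 doses, 15 min before testing. Video-captured behavior was algorithmically compared with a reference-drug signature database.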
Regarding `N#Cc1ccc2c(c1)[C@@H]([C@@H]1CCCN1)OCC2` [Compound I-39, (S)-1-((S)-pyrrolidin-2-yl)isochroman-7-carbonitrile], the “AD: ADHD (probability that behavioral signature matches class)” value (“AD: ADHD” for short) is recorded as “+ (LOQ ≤ + <5%)”, the “AG: analgesic (probability that behavioral signature matches class)” value (“AG: analgesic” for short) was “++ (5% ≤ ++ <25%)”, the “AX: anxiolytic (probability that behavioral signature matches class)” value (from here on “AX: anxiolytic”) is given as “++ (5% ≤ ++ <25%)” and the “CE: cognitive enhancer (probability that behavioral signature matches class)” value (shortened to “CE: cognitive enhancer”) was “++ (5% ≤ ++ <25%)”. The “DP: anti-depressant (probability that behavioral signature matches class)” value (“DP: anti-depressant” below) was “+ (LOQ ≤ + <5%)”, the “HA: hallucinogen (probability that behavioral signature matches class)” value (shortened to “HA: hallucinogen”) is given as “+ (LOQ ≤ + <5%)”, the “MS: mood stabilizer (probability that behavioral signature matches class)” value (from here on “MS: mood stabilizer”) is “+ (LOQ ≤ + <5%)” and the “PS: anti-psychotic (probability that behavioral signature matches class)” value (“PS: anti-psychotic” below) is on record as “+ (LOQ ≤ + <5%)”. Besides, the “SD: sedative hypnotic (probability that behavioral signature matches class)” value (from here on “SD: sedative hypnotic”) is given as “+ (LOQ ≤ + <5%)”, the “UN: uncharacterized CNS activity (probability that behavioral signature matches class)” value (from here on “UN: uncharacterized CNS activity”) is recorded as “++ (5% ≤ ++ <25%)” and the “XG: anxiogenic (probability that behavioral signature matches class)” value (“XG: anxiogenic” for short) was “+ (LOQ ≤ + <5%)”.

With `N#Cc1ccc2c(c1)[C@H]([C@@H]1CCCN1)OCC2` [Compound I-40, (R)-1-((S)-pyrrolidin-2-yl)isochroman-7-carbonitrile], the “AD: ADHD” value is on record as “+ (LOQ ≤ + <5%)”, the “AG: analgesic” value is “+ (LOQ ≤ + <5%)”, the “AX: anxiolytic” value is “++ (5% ≤ ++ <25%)” and the “CE: cognitive enhancer” value is on record as “++ (5% ≤ ++ <25%)”. In addition, the “DP: anti-depressant” value was “++ (5% ≤ ++ <25%)”, the “HA: hallucinogen” value is listed as “+ (LOQ ≤ + <5%)”, the “MS: mood stabilizer” value was “+ (LOQ ≤ + <5%)” and the “PS: anti-psychotic” value is recorded as “+++ (25% ≤ +++ <50%)”. In addition, the “SD: sedative hypnotic” value is “+ (LOQ ≤ + <5%)”, the “UN: uncharacterized CNS activity” value is reported as “+ (LOQ ≤ + <5%)” and the “XG: anxiogenic” value was “+ (LOQ ≤ + <5%)”.

For `N#Cc1ccc2c(c1)[C@H]([C@H]1CCCN1)OCC2` [Compound I-41, (R)-1-((R)-pyrrolidin-2-yl)isochroman-7-carbonitrile], the “AD: ADHD” value is on record as “+ (LOQ ≤ + <5%)”, the “AG: analgesic” value was “++ (5% ≤ ++ <25%)”, the “AX: anxiolytic” value is on record as “++ (5% ≤ ++ <25%)” and the “CE: cognitive enhancer” value was “++ (5% ≤ ++ <25%)”. Further, the “DP: anti-depressant” value was “+++ (25% ≤ +++ <50%)”, the “HA: hallucinogen” value was “+ (LOQ ≤ + <5%)”, the “MS: mood stabilizer” value is “++ (5% ≤ ++ <25%)” and the “PS: anti-psychotic” value is recorded as “++ (5% ≤ ++ <25%)”. The “SD: sedative hypnotic” value was “++ (5% ≤ ++ <25%)”, the “UN: uncharacterized CNS activity” value is given as “+ (LOQ ≤ + <5%)” and the “XG: anxiogenic” value was “+ (LOQ ≤ + <5%)”.
